The nature of the data set: Pharmacokinetic evaluation after intramuscular injection to rats. Type of data set: in vivo. The note with it: im, male rat, solution, 17.5 mg/kg, vortioxetine in plasma. As to the method:
The LC/MS/MS system for analysis consists of the Agilent 1200 series vacuum degassing furnace, binary syringe pump, well plate autosampler, column incubator, and API4000 three-stage quadrupole mass spectrometer equipped with electro spray ionization (ESI) source.
Waters XBridge™ C18, 2.1×30 mm, 3.5 μM column was used for analysis, and 20 μL of sample was injected. Analytical conditions: the mobile phase was (2 mM ammonium formate+0.1% formic acid) (A) and (methanol+2 mM ammonium formate+0.1% formic acid) (B). The flow rate was 0.5 mL/min.
In addition, the API4000 Series LC/MS/MS spectrometer for analysis was equipped with a G1312A binary syringe pump, G1367A autosampler and MS/MS detector; ESI source was used in LC/MS/MS spectrometer. Each analyte was treated in a suitable cation model and optimally analyzed by MRM conversion with using standard solutions. Waters XBridge™ C18 was used during the analysis and the size was: 2.1×30 mm, 3.5 μM. The mobile phase was (2 mM ammonium formate+0.1% formic acid) (A) and (methanol+2 mM ammonium formate+0.1% formic acid) (B). The flow rate was 0.5 mL/min; the column temperature was maintained at 40° C.; 15 μL of sample was injected.
The present invention evaluates the pharmacokinetic study of a series of compounds of the invention in rats. The compound of the present invention was added into a mixture formed by dissolving and dispersing Tween-20 and/or Span-20 in water after being subjected to a pretreatment such as grinding, sieving, etc., and was uniformly dispersed and fixed to a constant volume; the suspension was grinded by a ball mill, then administered. The animals were given a vortioxetine solution (17.5 mg/kg) and a suspension of vortioxetine compound (75 mg/kg) by intramuscular injection. After administration, whole blood was collected at 0.25, 1, 2, 5, 7, 24, 48, 72, 96, 120, 148, and 196 h, and plasma was separated and frozen for testing. And the plasma was centrifuge at 12,000 for 2 minutes. Plasma samples were collected and stored at −20° C. or −70° C. until LC/MS/MS analysis. […] The average drug-time curve of some of the compounds of the present invention after intramuscular injection in rats is shown in FIG. 1.

From patent US10927089B2, “Diaryl thioether piperazine compounds, preparation methods and uses thereof” (SUNSHINE LAKE PHARMA CO., LTD., priority 2016, dated 2021) come the findings set out here.

The structures appear in SMILES notation.

In general, Tmax refers to the time from dosing to the highest level. As for `Cc1ccc(Sc2ccccc2N2CCNCC2)c(C)c1` [WTXT, Vortioxetine], the AUC(0-t) (read-out: Exposure level AUClast) stood at 1.37 µg·h/mL. For the same molecule, the half-life (read-out: Half-life period T1/2 (converted)) is 2.74 h. Further, under “read-out: Peak concentration Cmax”, the Cmax was determined as 0.53 µg/mL. Further, the time of peak concentration (Tmax) (read-out: Time to peak Tmax) turned out to be 0.25 h.
